Laboratory results from US20250250303A1 (THE TRUSTEES OF COLUMBIA UNIVERSITY IN THE CITY OF NEW YORK, priority 2022, published 2025).
Bridge positions count the residues as written; N and C are the ends. Peptide text beside a SMILES is read from it.

Tests used:
IR F64A = molecular target: T1, IR F64A (Homo sapiens, UniProt P06213, F91A); assay: IR activation assay in 293 FT cells, IR F64A mutant; type: cell-based; details: 10 nM for 10 min
T1 construct: expressed in transfected cells; host or cells: 293 FT cells
T1 sequence (P06213 28-1370 isoform P06213-2 F91A limits assumed): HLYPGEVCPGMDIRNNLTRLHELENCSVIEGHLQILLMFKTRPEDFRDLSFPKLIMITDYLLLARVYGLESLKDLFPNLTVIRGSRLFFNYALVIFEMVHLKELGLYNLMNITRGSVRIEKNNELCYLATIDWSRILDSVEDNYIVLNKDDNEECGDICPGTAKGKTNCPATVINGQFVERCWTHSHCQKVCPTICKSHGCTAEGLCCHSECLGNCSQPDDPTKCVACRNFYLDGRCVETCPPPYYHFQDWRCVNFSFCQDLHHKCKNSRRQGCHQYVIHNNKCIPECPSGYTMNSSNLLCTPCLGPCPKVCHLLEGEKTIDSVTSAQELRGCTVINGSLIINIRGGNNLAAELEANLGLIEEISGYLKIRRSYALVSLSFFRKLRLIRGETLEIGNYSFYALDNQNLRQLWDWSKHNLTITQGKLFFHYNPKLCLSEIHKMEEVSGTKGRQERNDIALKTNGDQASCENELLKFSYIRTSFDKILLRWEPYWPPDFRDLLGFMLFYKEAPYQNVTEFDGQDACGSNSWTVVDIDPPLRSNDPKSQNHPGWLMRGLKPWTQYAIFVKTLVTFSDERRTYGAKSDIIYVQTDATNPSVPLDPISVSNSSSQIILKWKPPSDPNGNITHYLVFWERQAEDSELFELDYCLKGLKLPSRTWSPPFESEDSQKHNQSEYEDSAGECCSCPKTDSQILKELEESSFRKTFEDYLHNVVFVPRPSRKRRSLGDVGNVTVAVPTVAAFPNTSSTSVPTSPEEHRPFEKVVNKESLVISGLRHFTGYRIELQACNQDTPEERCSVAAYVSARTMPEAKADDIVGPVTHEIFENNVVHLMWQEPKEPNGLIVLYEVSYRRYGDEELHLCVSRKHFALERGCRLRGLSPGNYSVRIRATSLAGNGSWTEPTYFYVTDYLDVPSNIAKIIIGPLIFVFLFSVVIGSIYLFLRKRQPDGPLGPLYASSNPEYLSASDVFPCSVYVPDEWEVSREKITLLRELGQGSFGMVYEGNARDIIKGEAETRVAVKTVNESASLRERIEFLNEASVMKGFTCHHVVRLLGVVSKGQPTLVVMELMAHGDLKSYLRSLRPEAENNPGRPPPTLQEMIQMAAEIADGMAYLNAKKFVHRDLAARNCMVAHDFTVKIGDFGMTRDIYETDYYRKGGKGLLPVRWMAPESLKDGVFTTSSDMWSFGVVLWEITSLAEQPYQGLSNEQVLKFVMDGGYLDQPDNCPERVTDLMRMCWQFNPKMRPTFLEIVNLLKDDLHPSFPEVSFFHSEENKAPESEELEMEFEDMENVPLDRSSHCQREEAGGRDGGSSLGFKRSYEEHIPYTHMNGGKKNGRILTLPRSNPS
T1 sequence (P06213 763-1382 partner limits assumed): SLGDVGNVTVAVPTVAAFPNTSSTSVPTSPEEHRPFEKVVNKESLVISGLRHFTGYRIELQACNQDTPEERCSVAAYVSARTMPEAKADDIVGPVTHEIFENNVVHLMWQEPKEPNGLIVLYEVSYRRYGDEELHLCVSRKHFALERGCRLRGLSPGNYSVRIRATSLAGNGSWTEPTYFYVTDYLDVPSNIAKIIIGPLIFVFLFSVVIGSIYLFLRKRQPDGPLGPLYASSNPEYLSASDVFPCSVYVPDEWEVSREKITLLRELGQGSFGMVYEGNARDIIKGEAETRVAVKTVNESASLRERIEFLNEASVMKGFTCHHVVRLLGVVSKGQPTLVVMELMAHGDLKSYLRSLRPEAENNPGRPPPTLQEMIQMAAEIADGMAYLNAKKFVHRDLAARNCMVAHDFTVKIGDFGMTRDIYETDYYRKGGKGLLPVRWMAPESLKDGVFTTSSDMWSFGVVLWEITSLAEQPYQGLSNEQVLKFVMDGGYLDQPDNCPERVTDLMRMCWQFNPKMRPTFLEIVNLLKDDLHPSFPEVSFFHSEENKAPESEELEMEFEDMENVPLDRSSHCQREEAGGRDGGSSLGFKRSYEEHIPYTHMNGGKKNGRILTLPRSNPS

IR F96A = molecular target: T2, IR F96A (Homo sapiens, UniProt P06213, F123A); assay: IR activation assay in 293 FT cells, IR F96A mutant; type: cell-based; details: 10 nM for 10 min
T2 construct: expressed in transfected cells; host or cells: 293 FT cells
T2 sequence (P06213 28-1370 isoform P06213-2 F123A limits assumed): as the sequence (P06213 28-1370 isoform P06213-2 F91A limits assumed) above, with A64F, F96A counted along it
T2 sequence (P06213 763-1382 partner limits assumed): as the sequence (P06213 763-1382 partner limits assumed) above

IR R14A = molecular target: T3, IR R14A (Homo sapiens, UniProt P06213, R41A); assay: IR activation assay in 293 FT cells, IR R14A mutant; type: cell-based; details: 10 min
T3 construct: expressed in transfected cells; host or cells: 293 FT cells
T3 sequence (P06213 28-1370 isoform P06213-2 R41A limits assumed): as the sequence (P06213 28-1370 isoform P06213-2 F91A limits assumed) above, with R14A, A64F counted along it
T3 sequence (P06213 763-1382 partner limits assumed): as the sequence (P06213 763-1382 partner limits assumed) above

IR F701A/F705A = molecular target: T4, IR F701A/F705A (Homo sapiens, UniProt P06213, F728A/F732A); assay: IR activation assay in 293 FT cells, IR F701A/F705A mutant; type: cell-based; details: 10 min
T4 construct: expressed in transfected cells; host or cells: 293 FT cells
T4 sequence (P06213 28-1370 isoform P06213-2 F728A/F732A limits assumed): as the sequence (P06213 28-1370 isoform P06213-2 F91A limits assumed) above, with A64F, F701A, F705A counted along it
T4 sequence (P06213 763-1382 partner limits assumed): as the sequence (P06213 763-1382 partner limits assumed) above

IR signaling = IR signaling in primary mouse hepatocytes; type: cell-based
Description: Primary hepatocytes were isolated from 2-month-old male mice with a standard two-step collagenase perfusion procedure as described earlier with some modifications. […] After 1-2 sec upon appearance of white spots in the liver, the portal vein was cut with scissors to wash out blood, and then the liver was perfused with 30 ml of Liver Digest Medium (Thermo Scientific, Cat. #17703034). Dissected liver was gently washed with low glucose DMEM and transferred to sterile culture dish containing 15 ml Liver Digest Medium. The isolated liver cells were filtered through the 70 μm cell strainer into a 50 ml tube. After centrifuge at 50 g for 5 min at 4° C., cells were washed with cold low glucose DMEM three times. […] After 2 hr., the medium was changed to serum free low-glucose DMEM.
The cells were incubated with the lysis buffer B [50 mM Hepes pH 7.4, 150 mM NaCl, 10% Glycerol, 1% Triton X-100, 1 mM EDTA, 100 mM sodium fluoride, 2 mM sodium orthovanadate, 20 mM sodium pyrophosphate, 0.5 mM dithiothreitol (DTT), 2 mM phenylmethylsulfonyl fluoride (PMSF)] supplemented with complete Protease Inhibitor Cocktail (Roche), PhosSTOP (Sigma), and 25 U/ml turbo nuclease (Accelagen) on ice for 1 hr. After centrifuge at 20,817 g at 4° C. for 10 min, the concentrations of cell lysate were measured using Micro BCA Protein Assay Kit (Thermo Scientific). About 50-60 μg total proteins were analyzed by SDS-PAGE and quantitative Western blotting. The following antibodies were purchased from commercial sources: Anti-IR-pY1150/1151 (WB, 1:1000; 19H6; labeled as pY IR, Cat. #3024), anti-AKT (WB, 1:1000; 40D4, Cat. #2920), anti-pS473 AKT (WB, 1:1000; D9E, Cat. #4060), anti-ERK1/2 (WB, 1:1000; L34F12, Cat. #4696), anti-pERK1/2 (WB, […]; 197G2, Cat. #4377), anti-IRS1-pS616 (WB, 1:1000; C15H5, Cell Signaling, Cat. #3203); anti-IRS1 (WB, 1:1000; A301-158A, Bethyl Laboratory); anti-IR (WB, 1:500, CT-3, Santa Cruz; labeled as IR for primary hepatocytes and MEFs, Cat. #sc-57342); anti-IR (WB, 1:1000; EPR23566-103; labeled as IR for FIG. 31, ab278100, Abcam); anti-Myc (WB, 1:2000; 9E10, Cat. #11667149001, Roche; labeled as IR for 293 FT cells). For quantitative western blots, anti-rabbit immunoglobulin G (IgG) (H+L) (WB, 1:5000; Dylight 800 conjugates, Cat. #5151) and anti-mouse IgG (H+L) (WB, 1:5000; Dylight 680 conjugates, Cat. #5470) (Cell Signaling) were used as secondary antibodies. The membranes were scanned with the Odyssey Infrared Imaging System (Li—COR, Lincoln, NE).

MCF7 = assay: IR signaling in cancer cells, MCF7; type: cell-based; details: 10, 100 or 300 nM for 10 minutes
T47D = assay: IR signaling in cancer cells, T47D; type: cell-based; details: 10, 100 or 300 nM for 10 minutes
[1] = system: upstream MAPK pathway proteins (e.g., SOS1, SHP2); assay: Quantitative phosphoproteomics of skeletal muscle; type: in vivo, mice; details: compared to insulin
Description: FIG. 6A illustrates sequences of S597 and analogs. […] Liver (3 min) and skeletal muscle (5 min) were collected after injection. Quantification of data shown in Mean±SD. […] Two-tailed student t-test; *p<0.05; **p<0.01; ***p<0.001; ****p<0.0001 (PBS set as the control); ††p<0.01 and ††††p<0.0001. […] Compared to insulin-treated samples, blue and red sites indicate downregulation and upregulation of phosphorylation by S597, respectively.

[2] = Zucker diabetic fatty rats; cited from earlier work
IR = IR (Mus musculus, UniProt P15208); assay: Insulin receptor endocytosis in vivo (liver sections); parameters: from tissue; host or cells: liver of C57BL/6J mice; species or system mice
IR, sequence (P15208 28-748 limits assumed): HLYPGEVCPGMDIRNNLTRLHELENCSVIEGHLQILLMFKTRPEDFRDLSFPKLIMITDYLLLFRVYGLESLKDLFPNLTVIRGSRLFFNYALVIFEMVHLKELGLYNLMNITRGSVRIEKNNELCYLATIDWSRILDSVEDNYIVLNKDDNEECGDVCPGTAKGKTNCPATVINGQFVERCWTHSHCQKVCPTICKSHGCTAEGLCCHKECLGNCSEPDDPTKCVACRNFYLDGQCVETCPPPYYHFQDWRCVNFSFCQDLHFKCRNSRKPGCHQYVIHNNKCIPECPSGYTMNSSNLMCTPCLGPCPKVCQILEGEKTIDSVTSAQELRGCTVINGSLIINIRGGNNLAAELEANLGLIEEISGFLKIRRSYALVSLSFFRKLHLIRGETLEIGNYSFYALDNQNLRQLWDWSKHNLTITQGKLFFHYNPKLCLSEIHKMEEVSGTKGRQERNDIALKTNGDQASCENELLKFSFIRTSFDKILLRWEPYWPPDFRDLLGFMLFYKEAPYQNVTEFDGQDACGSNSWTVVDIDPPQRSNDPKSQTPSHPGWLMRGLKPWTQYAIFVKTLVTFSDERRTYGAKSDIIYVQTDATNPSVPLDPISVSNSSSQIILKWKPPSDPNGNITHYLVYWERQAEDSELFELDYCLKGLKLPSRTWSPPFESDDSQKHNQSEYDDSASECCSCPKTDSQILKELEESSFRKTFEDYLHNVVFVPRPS
IR, sequence (P15208 753-1372 partner limits assumed): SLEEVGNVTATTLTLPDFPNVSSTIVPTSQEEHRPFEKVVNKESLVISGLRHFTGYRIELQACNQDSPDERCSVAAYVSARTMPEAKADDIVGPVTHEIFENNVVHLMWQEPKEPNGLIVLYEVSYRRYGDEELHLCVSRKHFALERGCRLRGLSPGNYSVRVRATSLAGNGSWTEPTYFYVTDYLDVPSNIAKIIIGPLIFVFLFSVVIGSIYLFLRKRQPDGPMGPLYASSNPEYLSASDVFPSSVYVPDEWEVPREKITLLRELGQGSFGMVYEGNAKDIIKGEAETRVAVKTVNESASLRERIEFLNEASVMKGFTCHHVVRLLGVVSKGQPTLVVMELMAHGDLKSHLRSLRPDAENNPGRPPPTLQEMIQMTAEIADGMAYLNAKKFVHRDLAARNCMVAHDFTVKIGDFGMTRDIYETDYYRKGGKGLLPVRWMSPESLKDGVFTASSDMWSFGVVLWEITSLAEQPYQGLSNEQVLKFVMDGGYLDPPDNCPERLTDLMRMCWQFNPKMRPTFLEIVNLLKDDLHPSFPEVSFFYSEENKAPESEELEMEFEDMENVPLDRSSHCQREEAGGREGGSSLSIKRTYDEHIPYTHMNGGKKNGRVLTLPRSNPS
Description: For IR endocytosis assays, the livers were fixed in 10% Neutral Buffered Formalin (NBF) and embedded in paraffin blocks. Sections were deparaffinized, subjected to immunohistochemistry as described in the immunohistochemistry section and previous study.
The immunohistochemistry was performed as described earlier with some modifications. Mouse tissues were fixed in 10% NBF and embedded in paraffin blocks by the Molecular Pathology Core at Columbia University. The deparaffinized sections were subjected to antigen retrieval with 10 mM sodium citrate (pH 6.0), incubated with 0.3% H2O2, blocked with 3% bovine serum albumin (BSA), and then incubated with anti-IR antibodies (CT-3, Millipore, Cat. #MABS65, 1:100) in 3% BSA in PBS with 0.1% Triton X-100 (0.1% PBST) at 4° C. overnight. The slides were washed and incubated with secondary antibodies (Alexa Fluor 568 donkey anti-mouse, Invitrogen, Cat. #A10037, 1:200). The washed slides were stained with 4′,6′-diamidino-2-phenylindole (DAPI). Ten images were randomly taken under x60 magnification with a Leica Thunder Imager (Leica Microsystems Inc.). Images of sections were acquired as series of 0.2 μm stacks. The cell edges were defined with Image J as described earlier. The whole cell signal intensity (WC) and intracell cellular intensity (IC) were measured. The plasma membrane signal intensity (PM) was calculated by subtracting IC from WC. […]

With `CC[C@H](C)[C@H](NC(=O)[C@H](CCC(N)=O)NC(=O)[C@H](C)NC(=O)[C@H](Cc1c[nH]c2ccccc12)NC(=O)[C@H](CCC(=O)O)NC(=O)[C@H](CCC(=O)O)NC(=O)[C@H](CCC(=O)O)NC(=O)[C@H](CC(C)C)NC(=O)[C@H](CO)NC(C)=O)C(=O)N[C@@H](CCC(=O)O)C(=O)N[C@H]1CSSC[C@@H](C(=O)N2CCC[C@H]2C(=O)N[C@@H](CO)C(=O)N[C@@H](CCC(=O)O)C(=O)N[C@@H](CO)C(=O)N[C@@H](Cc2ccccc2)C(=O)N[C@@H](Cc2ccc(O)cc2)C(=O)N[C@@H](CC(=O)O)C(=O)N[C@@H](Cc2c[nH]c3ccccc23)C(=O)N[C@@H](Cc2ccccc2)C(=O)N[C@@H](CCC(=O)O)C(=O)N[C@@H](CCCNC(=N)N)C(=O)N[C@@H](CCC(N)=O)C(=O)N[C@@H](CC(C)C)C(N)=O)NC(=O)CNC(=O)[C@H](CCCNC(=N)N)NC(=O)CNC(=O)[C@H](Cc2ccc(O)cc2)NC(=O)[C@H](C(C)C)NC(=O)[C@H](CCC(=O)O)NC1=O` [S597] (Ac-SLEEEWAQIECEVYGRGCPSESFYDWFERQL-NH2; disulfide 11-18) the “IR activation (pY IR)” value (IR F64A) was “could still be activated”, the “IR activation (pY IR)” value (IR F96A) was “great deficiency” and the “IR activation (pY IR)” value (IR R14A) was “fully activated”. For the same molecule, the “IR activation (pY IR)” value (IR F701A/F705A) was “fully activated”, the pAKT (IR signaling) was “increased” and the pERK (IR signaling) was “increased”. The “pY IR” value (IR signaling) was “increased”, the IR signaling (MCF7) was “failed to activate” and the IR signaling (T47D) was “failed to activate”. The “phosphorylation levels of upstream MAPK pathway proteins (e.g., SOS1, SHP2)” value [1] was “significantly reduced”, the blood glucose [2] was “lowers” and the “IR endocytosis / internalization” value (IR) was “promoted IR internalization”.
